In brackets after ≈: the same amount, converted by molar mass.
Assays:
[1] = tested on: Mycobacterium avium; assay: Antimycobacterial activity against Mycobacterium avium ssp. paratuberculosis ATCC 19698 harboring pSMT1 carrying luxAB gene after 6 days by luminescence based serial dilution method; assay type: functional, Mycobacterium avium subsp. paratuberculosis; details: ATCC 19698, 144 h
[2] = Cytotoxicity against human MRC5 cells assessed as reduction in cell viability after 24 hrs by neutral red uptake assay; assay type: cell-based
[3] = tested on: Mycobacterium avium; assay: Antimycobacterial activity against Mycobacterium avium ssp. avium ATCC 15769 harboring pSMT1 carrying luxAB gene after 6 days by luminescence based serial dilution method; assay type: functional, Mycobacterium avium subsp. avium; details: ATCC 15769, 144 h
[4] = tested on: Mycolicibacterium smegmatis; assay: Antimycobacterial activity against Mycobacterium smegmatis MC2 155 harboring pSMT1 carrying luxAB gene after 6 days by luminescence based serial dilution method; assay type: functional; details: str. MC2 155, 144 h

Row | SMILES | MIC90 [1] [µM] | CC50 at 24 h [2] [µM] | MIC90 [3] [µM] | MIC90 [4] [µM]
1 | O=c1[nH]c2ccc(O)cc2c(O)c1-c1ccccc1 | 13.2 (≈ 3.34 µg/mL) | > 128 | 15.6 (≈ 3.95 µg/mL) | 16.8 (≈ 4.25 µg/mL)
2 | NNC(=O)c1ccncc1 [ISONIAZID] | < 0.1 | – | < 0.1 | < 0.1
3 | COc1ccc2[nH]c(=O)c(-c3ccccc3)c(O)c2c1 | 18.6 (≈ 4.97 µg/mL) | 75.4 | 17.5 (≈ 4.68 µg/mL) | 15.3 (≈ 4.09 µg/mL)
4 | Oc1nc2ccccc2c(O)c1-c1ccccc1 | 21.2 (≈ 5.03 µg/mL) | 96.5 | 19.8 (≈ 4.7 µg/mL) | 23.5 (≈ 5.58 µg/mL)
5 | CC(=O)Oc1c(-c2ccccc2)c(=O)[nH]c2ccc(F)cc12 | 7.5 (≈ 2.23 µg/mL) | 88.4 | 8.9 (≈ 2.65 µg/mL) | 9.5 (≈ 2.82 µg/mL)
6 | O=c1c(-c2ccccc2)c(O)c2ccccc2n1-c1ccccc1 | 23.8 (≈ 7.46 µg/mL) | > 128 | 35.4 (≈ 11.1 µg/mL) | 10.3 (≈ 3.23 µg/mL)
7 | Cc1ccc2[nH]c(=O)c(-c3ccccc3)c(O)c2c1 | 13.2 (≈ 3.32 µg/mL) | > 128 | 12.6 (≈ 3.17 µg/mL) | 19.2 (≈ 4.82 µg/mL)
8 | Cc1cc2[nH]c(=O)c(-c3ccccc3)c(O)c2cc1C | 20.3 (≈ 5.39 µg/mL) | 61.8 | 15.7 (≈ 4.17 µg/mL) | 17.3 (≈ 4.59 µg/mL)
9 | O=c1[nH]c2cc(O)ccc2c(O)c1-c1ccccc1 | 15.7 (≈ 3.98 µg/mL) | 92.1 | 16.3 (≈ 4.13 µg/mL) | 18.5 (≈ 4.69 µg/mL)
10 | COc1cccc2c(O)c(-c3ccccc3)c(O)nc12 | 18 (≈ 4.81 µg/mL) | 104 | 13 (≈ 3.47 µg/mL) | 15.1 (≈ 4.04 µg/mL)
11 | O=c1[nH]c2ccc(F)cc2c(O)c1-c1ccccc1 | 11.5 (≈ 2.94 µg/mL) | 67.4 | 8.5 (≈ 2.17 µg/mL) | 8.4 (≈ 2.14 µg/mL)
12 | COc1ccc2c(O)c(-c3ccccc3)c(=O)[nH]c2c1 | 16.5 (≈ 4.41 µg/mL) | 59 | 13.8 (≈ 3.69 µg/mL) | 19.5 (≈ 5.21 µg/mL)
13 | Cc1c(O)c2ccccc2[nH]c1=O | 14.5 (≈ 2.54 µg/mL) | 84.7 | 18.4 (≈ 3.22 µg/mL) | 23.2 (≈ 4.06 µg/mL)
14 | O=c1[nH]c2c(O)cccc2c(O)c1-c1ccccc1 | 13.7 (≈ 3.47 µg/mL) | 84.1 | 17 (≈ 4.31 µg/mL) | 20 (≈ 5.07 µg/mL)
